Calls of active or inactive are those of the source.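 Rule for the calls: active = compounds whose peak USP7 inhibition across the dose series reached 30% or more; inactive = the rest.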
target: Ubiquitin carboxyl-terminal hydrolase 7 (Homo sapiens) (UniProt Q93009); assay: Biochemical concentration-response for ubiquitin-specific peptidase 7 DUB inhibitors, verifying primary hits (AID 1645861); conditions: purified USP7, Ub-rhodamine cleavage fluorescence, 60 min
Sequence (Q93009 whole entry, looked up): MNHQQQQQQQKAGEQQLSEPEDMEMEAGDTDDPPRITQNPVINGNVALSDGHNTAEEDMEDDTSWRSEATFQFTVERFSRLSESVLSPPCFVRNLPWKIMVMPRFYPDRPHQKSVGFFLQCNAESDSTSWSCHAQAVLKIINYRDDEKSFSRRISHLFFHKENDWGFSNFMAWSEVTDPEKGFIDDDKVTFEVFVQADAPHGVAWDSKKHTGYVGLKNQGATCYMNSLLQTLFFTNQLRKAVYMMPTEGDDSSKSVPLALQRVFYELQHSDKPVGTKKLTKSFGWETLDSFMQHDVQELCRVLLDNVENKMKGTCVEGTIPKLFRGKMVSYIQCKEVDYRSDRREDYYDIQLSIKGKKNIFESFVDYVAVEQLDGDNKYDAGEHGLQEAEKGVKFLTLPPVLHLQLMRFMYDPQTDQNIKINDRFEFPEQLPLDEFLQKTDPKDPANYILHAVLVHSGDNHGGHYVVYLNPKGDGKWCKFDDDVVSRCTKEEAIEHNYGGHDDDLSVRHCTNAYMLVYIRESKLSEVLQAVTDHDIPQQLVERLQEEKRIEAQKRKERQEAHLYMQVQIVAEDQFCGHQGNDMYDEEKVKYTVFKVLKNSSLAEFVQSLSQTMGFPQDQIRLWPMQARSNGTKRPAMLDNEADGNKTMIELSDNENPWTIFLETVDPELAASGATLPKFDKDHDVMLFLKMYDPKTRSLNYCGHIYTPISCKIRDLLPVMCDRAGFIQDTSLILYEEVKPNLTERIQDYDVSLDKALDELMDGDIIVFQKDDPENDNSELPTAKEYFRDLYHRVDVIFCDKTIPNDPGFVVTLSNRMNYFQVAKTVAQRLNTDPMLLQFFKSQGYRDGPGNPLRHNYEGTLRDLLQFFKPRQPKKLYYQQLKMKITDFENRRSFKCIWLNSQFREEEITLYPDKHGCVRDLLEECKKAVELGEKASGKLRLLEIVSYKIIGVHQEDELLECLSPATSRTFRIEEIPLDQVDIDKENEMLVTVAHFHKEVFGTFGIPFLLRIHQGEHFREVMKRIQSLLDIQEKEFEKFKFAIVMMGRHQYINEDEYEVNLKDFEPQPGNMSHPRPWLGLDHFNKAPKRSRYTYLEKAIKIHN

Row | SMILES | IC50
1 | Cc1cccc(C(=O)Nc2cccc(SC(C(=O)Nc3ccc(Cl)c(C(=O)O)c3)c3ccccc3)c2)c1 (stereo not given) | 34.1 µM
2 | O=c1[nH]c2ccc(S(=O)(=O)Nc3ccc(O)c4ccccc34)cc2[nH]1 | > 50 µM (inactive)
3 | Cc1nc(N2CCN(c3ccc(Cl)cc3)CC2)c2oc3ccccc3c2n1 | > 50 µM (inactive)
4 | Cc1ccc2[nH]c(=O)c(-c3nc4ccc(C)cn4c3NCc3ccc(F)cc3)cc2c1 | 24.6 µM
5 | COc1ccc(-c2cc(-c3ccccc3)nc(SCC(N)=O)c2C#N)cc1OC | > 50 µM (inactive)
6 | CCOc1ccc2c(c1)c(=O)c(C(=O)c1ccccc1)cn2CC(=O)Nc1ccc2c(c1)OCCO2 | > 50 µM (inactive)
7 | Cc1nc(-c2ccc(Cl)cc2)oc1C(=O)Nc1ccc(Cl)cc1 | > 50 µM (inactive)
8 | COc1ccc([N+](=O)[O-])cc1NC(=O)COC(=O)c1ccc2[nH]c3c(c2c1)CCCC3 | > 50 µM (inactive)
9 | CCCCCCCCCC(CCCCCCCCCC(=O)O)O[C@H]1O[C@@H](COC(C)=O)[C@H](O)[C@@H](OC(=O)CC(=O)O)[C@H]1O (stereo not given in full) | > 50 µM (inactive)
10 | CCC(=O)Nc1cccnc1-c1ccc(C(=O)Nc2ccc3c(c2)OCO3)cc1 | > 50 µM (inactive)
11 | Cc1ccc2c(c1)N(C)C(=O)c1cc(NC(=O)c3ccc(F)cc3)ccc1O2 | > 50 µM (inactive)
12 | Cc1ccc(Nc2nc(NCC(=O)Nc3cc(C)ccc3C)nc(Nc3ccc(C)cc3)n2)cc1 | > 50 µM (inactive)
13 | COc1cc(O)c2c(O)c3c(cc2c1)C[C@@]1(O)CC(=O)C(C(N)=O)=C(O)[C@@]1(O)C3=O | 16.8 µM
14 | CSC1SCC2C(=O)N(C)C(C(C)C(C)C)C(=O)OCC(NC(=O)c3cnc4ccccc4n3)C(=O)NC(C)C(=O)N(C)C1C(=O)N(C)C(C(C)C(C)C)C(=O)OCC(NC(=O)c1cnc3ccccc3n1)C(=O)NC(C)C(=O)N2C (stereo not given) | > 50 µM (inactive)
15 | Cc1nn(-c2ccccc2)c2c1C1(C(=O)Nc3ccccc31)N1C(=N2)Sc2ccccc21 (stereo not given) | 3.39 µM
16 | CCc1ccc(NC(=O)C(C)OC(=O)/C=C/c2ccc(S(=O)(=O)Nc3cccc(S(N)(=O)=O)c3)cc2)cc1 (stereo not given) | > 50 µM (inactive)
17 | Cn1c(=O)c(C(=O)Nc2ccc(Br)cc2)nc2ccccc21 | > 50 µM (inactive)
18 | O=C(/C=C/c1ccc(F)cc1)N1CCc2ccccc2C1 | > 50 µM (inactive)
19 | O=C(CCCC(=O)N(c1ccc2c(c1)OCCO2)C(C(=O)NC1CCCCC1)c1ccc(F)cc1)Nc1ccccn1 (stereo not given) | > 50 µM (inactive)
20 | COC(=O)C1=CC(OC)=C(Cl)C(=O)C12OC(=O)c1c(O)cc(C)cc1O2 (stereo not given) | > 50 µM (inactive)
21 | O=c1ccc(-c2cc3ccccc3o2)cn1Cc1ccccc1-c1ccccc1 | 31.4 µM
22 | COc1ccccc1-c1nc(-c2cn(-c3cccc(Cl)c3)nn2)no1 | 28.9 µM

Row | SMILES | IC50
23 | Cc1ccc([N+](=O)[O-])cc1S(=O)(=O)Nc1cc2sc(=O)oc2c2ccccc12 | > 50 µM (inactive)
24 | O=C(Cn1c(=O)n(-c2ccc(CC(=O)NC3CCCC3)cc2)c(=O)c2ccccc21)Nc1ccccc1[N+](=O)[O-] | > 50 µM (inactive)
25 | O=C(O)c1ccccc1C(=O)Nc1ccc(SC(C(=O)Nc2cccc(Cl)c2)c2ccccc2)cc1 (stereo not given) | > 50 µM (inactive)
26 | COc1ccc(/C=C/C(=O)Nc2cccc(S(=O)(=O)Nc3ccccc3Cl)c2)c(OC)c1 | > 50 µM (inactive)
27 | CCn1cc2c(n1)c(=O)n(Cc1ccccc1)c(=O)n2CC(=O)Nc1ccc(OC)cc1 | > 50 µM (inactive)
28 | CCc1nc(SCC(=O)Nc2ccc(Cl)c(Cl)c2)c2oc3ccccc3c2n1 | > 50 µM (inactive)
29 | Cn1c(=O)c2nc(-c3ccc(Cl)cc3)nnc2n(C)c1=O | > 50 µM (inactive)
30 | COc1ccc(C(=O)COC(=O)c2ccccc2NS(=O)(=O)c2ccc(O)c([N+](=O)[O-])c2)cc1 | 49.3 µM
31 | O=C(Nc1cccc(Cl)c1)c1ncn2c1CNS(=O)(=O)c1ccccc1-2 | > 50 µM (inactive)
32 | CC[C@@H](C(=O)[C@@H](C)[C@@H](O)[C@H](C)CCc1ccc(C)c(O)c1C(=O)O)[C@@H]1O[C@](CC)([C@H]2CC[C@](O)(CC)[C@H](C)O2)C[C@@H]1C | 28.6 µM
33 | Cn1cc(NC(=O)Nc2cccc(C(F)(F)F)c2)c2ccccc2c1=O | > 50 µM (inactive)
34 | CC(C)CC1NC(=O)C2CCCN2C1=O (stereo not given) | > 50 µM (inactive)
35 | O=C1c2c(O)c(Cl)cc3c2[C@@]2(Oc4ccc(O)c5c4[C@]3(O2)[C@@H]2O[C@@H]2C5=O)[C@@H]2O[C@H]12 | 16.3 µM
36 | CC(NC(=O)c1ccccc1)c1nc2ccccc2n1CC(=O)Nc1ccc(C#N)cc1 (stereo not given) | > 50 µM (inactive)
37 | Cc1cccc(NC(=O)CSc2nc3c(cc2C#N)C(=O)CCC3)c1 | > 50 µM (inactive)
38 | O=C(CC1C(=O)Nc2nc3ccccc3n21)Nc1cccc2ccccc12 (stereo not given) | > 50 µM (inactive)
39 | CCCn1cc(C(=O)N2CCC3(CC2)CC2(CO3)Nc3ccccc3-n3cccc32)c(C)n1 (stereo not given) | > 50 µM (inactive)
40 | CN1C(=O)COc2cc(-c3noc(C(=O)NCc4ccc(F)cc4)n3)ccc21 | > 50 µM (inactive)
41 | Cc1cc(O)c2c3c(c(O)cc2c1)C(=O)c1c(O)cccc1C3=O | 19.5 µM
42 | O=C(CSc1nnc2c3ccccc3nc(-c3ccco3)n12)N1CCCc2ccccc21 | > 50 µM (inactive)
43 | Cc1ccccc1NC(=O)c1nc(-c2cn(Cc3ccc(F)cc3)nn2)no1 | > 50 µM (inactive)
44 | Cc1ccnc(Nc2nc(-c3ccccc3)c3cc(Cl)ccc3n2)n1 | 38.5 µM

Row | SMILES | IC50
45 | CC(C)Cc1ccc(-c2cc(-c3ccc(C(F)(F)F)cc3)c(C#N)c(=O)[nH]2)cc1 | > 50 µM (inactive)
46 | O=C(O)CCCCCN1C(=O)CC(c2ccc(Cl)cc2)CC1=O | > 50 µM (inactive)
47 | COC1=C(C2=C(OC)C(=O)c3cc4c(c(O)c3C2=O)C(=O)OC(C)C4)C(=O)c2c(cc3c(c2O)C(=O)OC(C)C3)C1=O (stereo not given) | 44.7 µM
48 | O=C(c1cnc2[nH][nH]c(=O)c2c1)c1cc(Cl)cc(Cl)c1O | 15.1 µM
49 | CCCCCCCCCc1cc(OC(=O)c2c(CCCCCCCCC)cc(O)cc2O[C@@H]2O[C@H](CO)[C@@H](O)[C@H](O)[C@H]2O)cc(O)c1C(=O)O | 5.09 µM
50 | Cc1cccc(-n2ccnc(SCC(=O)Nc3ccc(Cl)cc3F)c2=O)c1 | > 50 µM (inactive)
51 | O=C(Nc1cccc([N+](=O)[O-])c1)Nc1ccc2snnc2c1 | 17.7 µM
52 | O=C1Cc2ccccc2C(=O)N1c1ccc2c(c1)OCO2 | > 50 µM (inactive)
53 | CCn1cc2c(n1)c(=O)n(Cc1ccccc1)c(=O)n2CC(=O)Nc1ccc(C(C)C)cc1 | > 50 µM (inactive)
54 | O=C(Cn1c(=O)c2ccccc2c2ccccc21)Nc1ccc2c(c1)OCO2 | > 50 µM (inactive)
55 | CC(C)CCCCCCCCCCC(=O)N(C)[C@H](CO)C(=O)N[C@H](C)C(=O)NCC(=O)N(C)C1C(=O)N[C@@H](C)C(=O)NC(C(=O)O)Cc2ccc(O)c(c2)-c2cc1ccc2O (stereo not given in full) | > 50 µM (inactive)
56 | CC(=O)Nc1ccc(NC(=O)c2ccc3c(c2)CC(c2ccccc2)OC3=O)cc1 (stereo not given) | > 50 µM (inactive)
57 | Cn1c2ccccc2c(=O)c2c(=O)n(Cc3ccco3)c(-c3ccccc3F)nc21 | > 50 µM (inactive)
58 | O=C1CC(O)C(C2=CC(=O)c3c(O)cccc3C2=O)O1 (stereo not given) | 32.9 µM
59 | O=C(Nc1ccc(F)cc1)Nc1ccccc1OCc1cc(=O)n2ccccc2n1 | > 50 µM (inactive)
60 | CO/C=C/C(=O)c1cc2cnc3c(=N)cc(NC(C)=O)c([nH]1)c23 | 9.52 µM
61 | O=C(CCCCn1c(=O)c2ccccc2n(CC(=O)Nc2ccc3c(c2)OCCO3)c1=O)NCc1ccco1 | > 50 µM (inactive)
62 | Cc1cc(C(=O)N2CCOCC2)c(C)n1-c1ccc(O)cc1 | > 50 µM (inactive)
63 | COc1ccc(NC(=O)Cn2c(=O)n(CCC(=O)NCc3ccccc3)c(=O)c3sccc32)cc1Cl | > 50 µM (inactive)
64 | CC(NC(=O)c1nc2n(n1)-c1ccccc1S(=O)(=O)N2)c1cc2ccccc2o1 (stereo not given) | > 50 µM (inactive)
65 | C[C@H](NC(=O)Cc1ccccc1F)c1nc2cc(-c3ccccc3F)ncn2n1 | > 50 µM (inactive)
66 | COc1ccc(NC(=O)Cn2c(=O)n(-c3ccc(CC(=O)NCc4ccco4)cc3)c(=O)c3ccccc32)cc1Cl | > 50 µM (inactive)

Row | SMILES | IC50
67 | COC(=O)c1ccc(Nc2cc(C)nc3cc(C(F)(F)F)ccc23)cc1 | > 50 µM (inactive)
68 | CCC(=O)Nc1nc2cc(NC(=O)Nc3cccc(C)c3)ccc2s1 | > 50 µM (inactive)
69 | COC(=O)c1ccc2c(=O)n(CCCCCC(=O)NCCc3ccccc3Cl)c(=O)[nH]c2c1 | > 50 µM (inactive)
70 | Nc1c(-c2nc(-c3ccccc3Cl)no2)nnn1-c1ccc(Cl)cc1 | > 50 µM (inactive)
71 | CCOc1ccc2cc3c(nc2c1)OC(=O)N(Cc1ccc(OC)cc1)C3 | > 50 µM (inactive)
72 | O=C(COc1ccc(N2CC(C(=O)NCc3ccc4c(c3)OCO4)CC2=O)cc1)Nc1ccc(F)cc1 (stereo not given) | > 50 µM (inactive)
73 | O=c1c(O)c(-c2ccc(O)c(O)c2)oc2cc(O)cc(O)c12 | 5.22 µM
74 | COc1ccc(-c2nc3c(c(=O)c4ccccc4n3C)c(=O)n2Cc2ccco2)cc1 | 46.9 µM
75 | COc1ccc(-c2nc(SCC(=O)Oc3c(C)cccc3C)n3[nH]c(=O)cc3n2)cc1 | > 50 µM (inactive)
76 | CC(C)=CCOC(C)(C)[C@H]1OC2CC[C@@]3(C)C(CCC4Cc5c([nH]c6ccccc56)[C@@]43C)C23OC3[C@@H]1O (stereo not given in full) | 37.7 µM
77 | COc1ccc(CCNC(=O)Cn2c(=O)c3sccc3n(Cc3cccc([N+](=O)[O-])c3)c2=O)cc1OC | > 50 µM (inactive)
78 | Cc1ccnc(NS(=O)(=O)c2ccc(NC(=O)c3ccc(S(=O)(=O)N(C)Cc4ccccc4)cc3)cc2)n1 | > 50 µM (inactive)
79 | COc1ccc(CCC(=O)Nc2nnc(C3CC(=O)N(c4ccc(C)cc4)C3)s2)cc1 (stereo not given) | > 50 µM (inactive)
80 | Cc1ccc(Cn2cc(-c3noc(C(=O)Nc4cc(F)ccc4F)n3)nn2)cc1 | > 50 µM (inactive)
81 | C=C/C(=C/C(=O)C[C@H](C)C[C@@H](C)CC[C@H](O)[C@H](C)C(=O)CC(O)[C@H](C)[C@@H](C)OC(=O)C[C@@H](O)C1=C(C)C(=O)OC1=O)CC (stereo not given in full) | 43.1 µM
82 | O=C(Cn1c(=O)c2ccccc2n(CC(=O)Nc2cccc(F)c2)c1=O)NCCc1ccccc1 | > 50 µM (inactive)
83 | COc1cc(-c2ccccc2)c(O)c(O)c1-c1ccccc1 | 22.1 µM
84 | O=C(CCc1ccc(S(=O)(=O)N2CCOCC2)cc1)OCC(=O)c1ccc(-c2ccccc2)cc1 | > 50 µM (inactive)
85 | CCOc1ccc(-n2c(=O)c3sccc3n(CC(=O)Nc3cccc(C)c3)c2=O)cc1 | > 50 µM (inactive)
